Paper PMC8759985 (Computational and Structural Biotechnology Journal, 2021)

Molecular target: T1, TRMT2A RRM (Homo sapiens, UniProt Q8IZ69)
T1 sequence (Q8IZ69 69-147): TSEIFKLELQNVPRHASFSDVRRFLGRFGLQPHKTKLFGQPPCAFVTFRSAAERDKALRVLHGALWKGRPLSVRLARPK
Test: SPR
Assay type: binding

Kd: 1300 ± 270 nM
Compound: NCCCNCCCCNCCCN [spermine]
